Source: ChEMBL document CHEMBL3046894, “Synthesis and Herbicidal Activity of Pyrimidinyl Salicylic and Thiosalicylic Acids” (J Pestic Sci, 1996)
The source made the active and inactive calls. The calls are words filed in the database; no cut-off is given here.

Columns and labels:
[1] = tested on: Ipomoea lacunosa; test: Pre-emergence herbicidal activity against Ipomoea lacunosa assessed as mortality at 1.6 g a.i/10 a; assay type: functional
[2] = tested on: Gossypium hirsutum; test: Pre-emergence phytotoxicity against Gossypium hirsutum (cotton) assessed as mortality at 1.6 g a.i/10 a; assay type: organism-based; conditions: in vivo, other
[3] = tested on: Zea mays; test: Post-emergence phytotoxicity against Zea mays (maize) assessed as mortality at 1.6 g a.i/10 a applied 11 days after germination as foliar spray; assay type: organism-based; conditions: in vivo, other, 264 h
[4] = tested on: Xanthium strumarium; test: Pre-emergence herbicidal activity against Xanthium strumarium (cocklebur) assessed as mortality at 1.6 g a.i/10 a; assay type: functional
[5] = tested on: Zea mays; test: Pre-emergence phytotoxicity against Zea mays (maize) assessed as mortality at 6.3 g a.i/10 a; assay type: organism-based; conditions: in vivo, other
[6] = tested on: Gossypium hirsutum; test: Post-emergence phytotoxicity against Gossypium hirsutum (cotton) assessed as mortality at 1.6 g a.i/10 a applied 11 days after germination as foliar spray; assay type: organism-based; conditions: in vivo, other, 264 h
[7] = tested on: Glycine max; test: Pre-emergence phytotoxicity against Glycine max (soybean) assessed as mortality at 1.6 g a.i/10 a; assay type: organism-based; conditions: in vivo, other
[8] = (§1) Pre-emergence phytotoxicity against Gossypium hirsutum (cotton) assessed as mortality at 6.3 g a.i/10 a; assay type: organism-based; conditions: in vivo, 6.3 g a.i/10 a, read-out: Activity
[9] = tested on: Glycine max; test: Pre-emergence phytotoxicity against Glycine max (soybean) assessed as mortality at 6.3 g a.i/10 a; assay type: organism-based; conditions: in vivo, other
[10] = (§2) Post-emergence phytotoxicity against Glycine max (soybean) assessed as mortality at 1.6 g a.i/10 a applied 11 days after germination as foliar spray; assay type: organism-based; conditions: in vivo, 1.6 g a.i/10 a
[11] = tested on: Gossypium hirsutum; test: Post-emergence phytotoxicity against Gossypium hirsutum (cotton) assessed as mortality at 6.3 g a.i/10 a applied 11 days after germination as foliar spray; assay type: organism-based; conditions: in vivo, other, 264 h
[12] = tested on: Zea mays; test: Post-emergence phytotoxicity against Zea mays (maize) assessed as mortality at 6.3 g a.i/10 a applied 11 days after germination as foliar spray; assay type: organism-based; conditions: in vivo, other, 264 h
[13] = tested on: Zea mays; test: Pre-emergence phytotoxicity against Zea mays (maize) assessed as mortality at 1.6 g a.i/10 a; assay type: organism-based; conditions: in vivo, other
[14] = tested on: Glycine max; test: as §2; assay type: organism-based; conditions: in vivo, other, 264 h
[15] = tested on: Xanthium strumarium; test: Pre-emergence herbicidal activity against Xanthium strumarium (cocklebur) assessed as mortality at 6.3 g a.i/10 a; assay type: functional
[16] = tested on: Glycine max; test: Post-emergence phytotoxicity against Glycine max (soybean) assessed as mortality at 6.3 g a.i/10 a applied 11 days after germination as foliar spray; assay type: organism-based; conditions: in vivo, other, 264 h
[17] = tested on: Echinochloa crus-galli; test: Post-emergence herbicidal activity against Echinochloa crus-galli (barnyard grass) assessed as growth inhibition at 25 g a.i/10 a applied 11 days after germination as foliar spray; assay type: functional, organism-based
[18] = tested on: Amaranthus retroflexus; test: Pre-emergence herbicidal activity against Amaranthus retroflexus assessed as growth inhibition at 25 g a.i/10 a; assay type: functional, organism-based
[19] = tested on: Digitaria sanguinalis; test: Pre-emergence herbicidal activity against Digitaria sanguinalis (hairy crabgrass) assessed as growth inhibition at 25 g a.i/10 a; assay type: functional, organism-based
[20] = tested on: Chenopodium album; test: Post-emergence herbicidal activity against Chenopodium album assessed as growth inhibition at 25 g a.i/10 a applied 11 days after germination as foliar spray; assay type: functional, organism-based
[21] = tested on: Cyperus iria; test: Post-emergence herbicidal activity against Cyperus iria assessed as growth inhibition at 25 g a.i/10 a applied 11 days after germination as foliar spray; assay type: functional, organism-based
[22] = tested on: Echinochloa crus-galli; test: Pre-emergence herbicidal activity against Echinochloa crus-galli (barnyard grass) assessed as growth inhibition at 25 g a.i/10 a; assay type: functional, organism-based
[23] = tested on: Amaranthus retroflexus; test: Post-emergence herbicidal activity against Amaranthus retroflexus assessed as growth inhibition at 25 g a.i/10 a applied 11 days after germination as foliar spray; assay type: functional, organism-based
[24] = tested on: Chenopodium album; test: Pre-emergence herbicidal activity against Chenopodium album assessed as growth inhibition at 25 g a.i/10 a; assay type: functional, organism-based
[25] = tested on: Persicaria nodosa; test: Pre-emergence herbicidal activity against Persicaria nodosa assessed as growth inhibition at 25 g a.i/10 a; assay type: functional, organism-based
[26] = tested on: Digitaria sanguinalis; test: Post-emergence herbicidal activity against Digitaria sanguinalis (hairy crabgrass) assessed as growth inhibition at 25 g a.i/10 a applied 11 days after germination as foliar spray; assay type: functional, organism-based
[27] = tested on: Abutilon theophrasti; test: Post-emergence herbicidal activity against Abutilon theophrasti (velvetleaf) assessed as mortality at 1.6 g a.i/10 a applied 11 days after germination as foliar spray; assay type: functional; conditions: 264 h
[28] = tested on: Cyperus iria; test: Pre-emergence herbicidal activity against Cyperus iria assessed as growth inhibition at 25 g a.i/10 a; assay type: functional, organism-based
[29] = tested on: Persicaria nodosa; test: Post-emergence herbicidal activity against Persicaria nodosa assessed as growth inhibition at 25 g a.i/10 a applied 11 days after germination as foliar spray; assay type: functional, organism-based
[30] = tested on: Abutilon theophrasti; test: Post-emergence herbicidal activity against Abutilon theophrasti (velvetleaf) assessed as mortality at 6.3 g a.i/10 a applied 11 days after germination as foliar spray; assay type: functional; conditions: 264 h
[31] = tested on: Gossypium hirsutum; test: as §1; assay type: organism-based; conditions: in vivo, other

Compound	growth inhibition (GI) [17]	growth inhibition (GI) [18]	growth inhibition (GI) [19]	growth inhibition (GI) [20]	growth inhibition (GI) [21]	growth inhibition (GI) [22]	growth inhibition (GI) [23]	growth inhibition (GI) [24]	growth inhibition (GI) [25]	growth inhibition (GI) [26]	growth inhibition (GI) [28]	growth inhibition (GI) [29]	also measured
COc1cc(OC)nc(Sc2cccc(F)c2C(=O)O)n1													Activity [1]: <50%; Activity [2]: < 50%; Activity [3]: Toxic; Activity [4]: <50%; Activity [5]: Toxic; Activity [6]: Non-toxic; Activity [7]: Non-toxic; mortality [8]: < 50%; Activity [9]: Non-toxic; mortality at 264 h [10]: > 90%; Activity [11]: Toxic; Activity [12]: Toxic; Activity [13]: Toxic
COc1cc(OC)nc(Sc2cccc([N+](=O)[O-])c2C(=O)O)n1													Activity [2]: < 50%; Activity [3]: Non-toxic; Activity [4]: <50%; Activity [5]: Toxic; Activity [6]: Non-toxic; Activity [7]: Non-toxic; mortality [8]: < 50%; Activity [9]: Toxic; Activity [14]: Toxic; Activity [15]: <50%; Activity [11]: Non-toxic; Activity [12]: Non-toxic; Activity [13]: Non-toxic; Activity [16]: Toxic
COc1cc(OC)nc(Oc2cccc(SC)c2C(=O)O)n1	Active	Active	inactive	Active	Active	inactive	Active	inactive	Active	Active	inactive	Active	Activity [3]: Toxic; Activity [6]: Toxic; mortality at 264 h [10]: > 90%; mortality at 16 g/ha [27]: > 90%; Activity [11]: Toxic; Activity [12]: Toxic; mortality at 63 g/ha [30]: > 90%
COc1cc(OC)nc(Oc2ccc(Cl)cc2C(=O)O)n1	inactive	Active	inactive	Active	Active	inactive	Active	Active	inactive	inactive	inactive	inactive	
COc1cc(OC)nc(Nc2cccc(Cl)c2C(=O)O)n1	inactive	inactive	inactive	inactive	inactive	inactive	Active	inactive	inactive	inactive	inactive	inactive	
COc1cc(OC)nc(Oc2cccc(OC(C)C)c2C(=O)O)n1	Active	Active	Active	Active	Active	Active	Active	Active	Active	Active	Active	Active	
CCSc1cccc(Oc2nc(OC)cc(OC)n2)c1C(=O)O	Active	Active	inactive	Active	Active	inactive	Active	inactive	inactive	inactive	inactive	Active	
CCCSc1cccc(Oc2nc(OC)cc(OC)n2)c1C(=O)O	inactive	inactive	inactive	inactive	inactive	inactive	Active	inactive	inactive	inactive	inactive	Active	
COc1cc(OC)nc(Oc2cccc(OC(F)F)c2C(=O)O)n1	Active	Active	Active	Active	Active	Active	Active	Active	Active	Active	Active	Active	mortality at 16 g/ha ([1]; Ipomoea lacunosa, pre-emergence): < 5%; Activity [2]: Non-toxic; Activity [3]: Toxic; mortality at 16 g/ha ([4]; Xanthium strumarium, pre-emergence): < 5%; Activity [5]: Toxic; Activity [6]: Toxic; Activity [7]: Toxic; Activity [31]: Non-toxic; Activity [9]: Toxic; mortality at 264 h [10]: > 90%; mortality at 16 g/ha [27]: > 90%; Activity [11]: Toxic; Activity [12]: Toxic; mortality at 63 g/ha [30]: > 90%; Activity [13]: Non-toxic
CCCCOc1cccc(Oc2nc(OC)cc(OC)n2)c1C(=O)O	Active	Active	Active	Active	Active	Active	Active	Active	inactive	Active	Active	Active	
COc1cc(OC)nc(Oc2cccc(-c3ccccc3)c2C(=O)O)n1	Active	Active	Active	Active	Active	Active	Active	Active	Active	Active	Active	Active	
COc1cc(OC)nc(Oc2cccc(C(C)=O)c2C(=O)O)n1	Active	Active	Active	Active	Active	Active	Active	Active	Active	Active	Active	Active	
COc1cc(OC)nc(Oc2cccc(C(=O)c3ccccc3)c2C(=O)O)n1	inactive	Active	inactive	Active	Active	inactive	Active	Active	inactive	inactive	Active	Active	
COc1cc(OC)nc(Oc2ccc(C(F)(F)F)cc2C(=O)O)n1	inactive	inactive	inactive	inactive	inactive	inactive	Active	inactive	inactive	inactive	inactive	inactive	
